Measured values published in patent US7105541B2, “Naphthyl compounds, intermediates, compositions, and methods of use” (Eli Lilly and Company, priority 1996, dated 2006).
Structures can show the parent of a compound that is named as a salt. Marks after values point to notes of the source that are not given here.

Tested on: ovariectomized rats
Test: ovariectomized rat model of postmenopausal hyperlipidemia (serum cholesterol, uterine weight, uterine eosinophil peroxidase)
Format: in vivo
Excerpt: Experimental models of postmenopausal hyperlipidemia are known in the art. Germane to this invention is the ovariectomized rat model which is detailed in U.S. Pat. No. 5,464,845. Data presented in Table 1 show comparative results among ovariectomized rats, rats treated with 17-α-ethynyl estradiol (EE2), and rats treated with certain compounds of this invention. […] This uterine response to estrogen is well recognized in the art.
Not only did the compounds of the present invention reduce serum cholesterol compared to the ovariectomized animals, but the uterine weight was increased to lesser extent than those given EE2. Compared to estrogenic compounds known in the art, the benefit of serum cholesterol reduction while lessening the effect on uterine weight is unusual and desirable.
As expressed in the data below, estrogenicity also was assessed by evaluating the response of eosinophil infiltration into the uterus.
The data presented in Table 1 reflect the response per treatment group.

[1] = ovariectomized rats, 0.1 mg/kg PO
[2] = ovariectomized rats, 1.0 mg/kg PO
[3] = ovariectomized rats, 10.0 mg/kg PO
[4] = ovariectomized rats, 0.01 mg/kg PO
[5] = orally administered at 0.1 mg/kg/day, ovariectomized rats

Row | Structure (SMILES) | Uterine Eosinophil (Vmax), eosinophil peroxidase [1] | Uterine Weight % Inc (increase versus the ovariectomized controls) [1] | Uterine Eosinophil (Vmax), eosinophil peroxidase [2] | Uterine Weight % Inc (increase versus the ovariectomized controls) [2] | Uterine Eosinophil (Vmax), eosinophil peroxidase [3] | Uterine Weight % Inc (increase versus the ovariectomized controls) [3] | Uterine Eosinophil (Vmax), eosinophil peroxidase [4] | Uterine Weight % Inc (increase versus the ovariectomized controls) [4] [%] | Serum Cholest. % Dec. (decrease versus ovariectomized controls) [1] | Serum Cholest. % Dec. (decrease versus ovariectomized controls) [2] | Serum Cholest. % Dec. (decrease versus ovariectomized controls) [3] | Serum Cholest. % Dec. (decrease versus ovariectomized controls) [4] [%] | serum cholesterol (in words) [5] | uterine weight versus ovariectomized animals (in words) [5] | eosinophil infiltration into the uterus (in words) (stromal layer of ovariectomized rat uteri)
1 | O=C(c1ccc(OCCN2CCCCC2)cc1)c1c(-c2ccc(O)cc2)sc2cc(O)ccc12 [Raloxifene, [2-(4-hydroxyphenyl)-6-hydroxybenzo[b]thien-3-yl] [4-[2-(1-piperdinyl)ethoxy]phenyl]methanone hydrochloride, reference compound] | 5.4 | 23.5% | – | – | – | – | – | – | 49.3* % | – | – | – | – | – | –
2 | C#C[C@]1(O)CC[C@H]2[C@@H]3CCc4cc(O)ccc4[C@H]3CC[C@@]21C [EE2, 17-α-Ethynyl-estradiol, reference compound] | 174.3* | 138.8* % | – | – | – | – | – | – | 88.1* % | – | – | – | caused a decrease in serum cholesterol | substantially greater than the uterine weight of the ovariectomized animals | substantial and expected increase in eosinophil infiltration

Continued, in another order:

Row | Uterine Eosinophil (Vmax), eosinophil peroxidase [1] | Uterine Weight % Inc (increase versus the ovariectomized controls) [1] | Uterine Eosinophil (Vmax), eosinophil peroxidase [2] | Uterine Weight % Inc (increase versus the ovariectomized controls) [2] | Uterine Eosinophil (Vmax), eosinophil peroxidase [3] | Uterine Weight % Inc (increase versus the ovariectomized controls) [3] | Uterine Eosinophil (Vmax), eosinophil peroxidase [4] | Uterine Weight % Inc (increase versus the ovariectomized controls) [4] [%] | Structure (SMILES) | Serum Cholest. % Dec. (decrease versus ovariectomized controls) [1] | Serum Cholest. % Dec. (decrease versus ovariectomized controls) [2] | Serum Cholest. % Dec. (decrease versus ovariectomized controls) [3] | Serum Cholest. % Dec. (decrease versus ovariectomized controls) [4] [%] | serum cholesterol (in words) [5] | uterine weight versus ovariectomized animals (in words) [5] | eosinophil infiltration into the uterus (in words) (stromal layer of ovariectomized rat uteri)
3 | 4.8 | 10.4% | 3.0 | 15.3% | 1.2 | 3.9% | – | – | Cl.Oc1cccc(-c2ccc3cc(O)ccc3c2Oc2ccc(OCCN3CCCCC3)cc2)c1 [Example 3, 1-[4-[2-(1-piperidinyl)ethoxy]phenoxy]-2-(3-hydroxyphenyl)-6-hydroxynaphthalene hydrochloride] | 26.3* % | 45.7* % | 22.9% | – | – | – | –
4 | 4.8 | 21.9% | 4.8 | 35.8* % | – | – | 2.1 | 9.6 | COc1cccc(-c2ccc3cc(OC)ccc3c2Oc2ccc(OCCN3CCCCC3)cc2)c1.Cl [Example 1, 1-[4-[2-(1-piperidinyl)ethoxy]phenoxy]-2-(3-methoxyphenyl)-6-methoxynaphthalene hydrochloride] | 55.6* % | 60.5* % | – | 12.1 | – | – | –
5 | 4.5 | 42.7* % | 7.8 | 43.8* % | 4.5 | 37.2* % | – | – | COc1cccc(-c2ccc3ccccc3c2Oc2ccc(OCCN3CCCCC3)cc2)c1.Cl [Example 2, 1-[4-[2-(1-piperidinyl)ethoxy]phenoxy]-2-(3-methoxyphenyl)naphthalene hydrochloride] | 59.6* % | 66.2* % | 59.0* % | – | – | – | –
